Experiment: Oxygen Radical Absorbance Capacity (ORAC) Peroxynitrite Assay
Conditions: Trolox equivalent; SIN-1 as peroxynitrite source, dihydrorhodamine-123 probe, 37° C.; FIG. 4
From the text: The ORAC assay is the most common method for assessing antioxidant activity. It is based on evaluating the capacity of a test material to protect a probe (e.g., a chromagen) from its damage by oxygen radicals (in this case, peroxynitrite). Results are expressed as micromole Trolox Equivalency per gram of the test material:
This methodology is further discussed in: “Development and validation of an improved oxygen radical absorbance capacity assay using fluorescein as the fluorescent probe.”; Ou, Boxin, Maureen Hampsch-Woodill, and Ronald L. Prior. Journal of agricultural and food chemistry 49.10 (2001): 4619-4626 incorporated herein by reference; and further in “Development and validation of oxygen radical absorbance capacity assay for lipophilic antioxidants using randomly methylated β-cyclodextrin as the solubility enhancer.”, Huang, Dejian, et al. Journal of Agricultural and Food Chemistry 50.7 (2002): 1815-1821, incorporated herein by reference.
Experimental Methodology: The ORAC Peroxynitrite measures the peroxynitrite radical. […] Dihydrorhodamine-123 is the chosen target protein, whose loss of fluorescence (with excitation at 485 nm and emission at 528 nm) is an indication of the extent of damage from its reaction with the peroxynitrite radical. […] Kinetic fluorescence profile is detected using Biotek plate reader with excitation at 485 nm and emission at 528 nm, at 37° C. […]

## [O-]n1ccccc1=S.[O-]n1ccccc1=S.[Zn+2] [ZPT, zinc salt of 1-hydroxy-2-pyridinethione]
  ORAC peroxynitrite antioxidant activity: only individual material that showed appreciable activity
